A word on the IC50: it is the midpoint of a concentration-inhibition curve. Read a low IC50 as greater potency.

We go through 5 molecules from patent US20260374739A1, “SMALL MOLECULAR WEIGHT CHEMICAL COMPOUND TO ANTAGONIZE EPH-EPHRIN TETRAMERIZATION AND INHIBIT BIDIRECTIONAL SIGNALING” (THE BOARD OF REGENTS OF THE UNIVERSITY OF TEXAS SYSTEM, priority 2022, published 2026).

The subject of experiment [1] is Zymosan-induced thermal pain in mice. The experiment is described as follows: Zymosan inflammatory pain, thermal. The note with it: PO; for thermal pain ratio: A20 experiment vehicle close to 6. Format: in vivo, mouse. As to the method:
An alternative and potentially faster pain model using Zymosin (an inflammatory agent like CFA) to induce inflammatory pain was tested. […] Mice were first acclimated to the pain testing set ups and then subjected to baseline mechanical and thermal pain measurements. Early in the morning the following day, the left hind paws were injected subcutaneously with 30 μL of Zymosan (5 mg/ml in PBS; Z4250, Sigma-Aldrich). Two hours after the Zymosan injection, the left hind paws were assessed for thermal pain using Hargreaves device (2-4 hr), and then left paws tested for mechanical pain using VF filaments (4-6 hr), and then again for thermal pain (6-8 hr). Data from two independent experiments were pooled to increase the n values for the three different genotypes. […] Thermal pain increased in all group following Zymosan injury as indicated by a decreased average response time to the infrared heat source in all animals assessed, and the level of pain intensified from the 2-4 hr testing period to the 6-8 hr period.
Inflammatory pain was induced by subcutaneous injection of 30 μl of 5 mg/ml Zymosan into the right hind paws of 12 wild-type adult male mice (5-6 months age, 129×1/SvJ background) that in previous days were acclimated to the testing chambers and assessed to obtain baseline pain measurements. After 15 min, mice were orally dosed with either vehicle only (97% PBS/3% DMSO) or with 20, 10, or 5 mg/kg of A20 (2×·HCl salt in vehicle), 3 mice for each condition. Two hours after Zymosan injection, the right hind paws were assessed for thermal pain using Hargreaves device (2-4 hr), then mice were orally dosed again with vehicle only or A20 chemicals, and then right paws tested for mechanical pain using VF filaments (4-6 hr), and then again for thermal pain (6-8 hr).
Inflammatory pain was induced by subcutaneous injection of 30 μl of 5 mg/ml Zymosan into the left hind paws of 9 wild-type adult males (5-6 months age, 129/CD1 mixed background) that in previous days were acclimated to the testing chambers and assessed to obtain baseline pain measurements. After 15 min, mice were orally dosed with either vehicle only (97% PBS/3% DMSO) or with 20 mg/kg of 3511-I (2×·HCl salt in vehicle), or 20 mg/kg BQPB4 (3×·HCl salt in 97% sunflower seed oil/3% DMSO), 3 mice for each condition. Two hours after Zymosan injection, the left […] hind paws were assessed for mechanical pain using VF filaments (2-4 hr), then mice were orally dosed again with vehicle only or A20 chemicals, and then left hind paws tested for thermal pain using Hargreaves device (4-6 hr), and then again for mechanical pain (6-8 hr).
Inflammatory pain was induced by subcutaneous injection of Zymosan into left hind paws, followed 15 min later with an oral dose of either vehicle or 20, 10, or 5 mg/kg of BQPB4 (3×·HCl salt in 97% sunflower seed oil/3% DMSO). Two hours after Zymosan injection, the left hind paws were assessed for mechanical pain using VF filaments (2-4 hr), then mice were orally dosed again with vehicle or BQPB4 chemical, and then hind paws tested for thermal pain using Hargreaves device (4-6 hr), and then tested again for mechanical pain (6-8 hr). […] Calculation of pain ratios confirmed the significant dose-dependent effects of BQPB4 at blunting thermal pain (FIG. 92B).

The next experiment has as its target T1, EphB4-Fc with EB2-His (Mus musculus, UniProt P54761).
T1 construct: soluble EphB ectodomains conjugated to Fc from R&D Systems; mouse EB2-His residues 18-232; purchased R&D Systems (EphB-Fc); Sino Biologicals (EphrinB-His)
T1 sequence (P54761 16-539 limits assumed): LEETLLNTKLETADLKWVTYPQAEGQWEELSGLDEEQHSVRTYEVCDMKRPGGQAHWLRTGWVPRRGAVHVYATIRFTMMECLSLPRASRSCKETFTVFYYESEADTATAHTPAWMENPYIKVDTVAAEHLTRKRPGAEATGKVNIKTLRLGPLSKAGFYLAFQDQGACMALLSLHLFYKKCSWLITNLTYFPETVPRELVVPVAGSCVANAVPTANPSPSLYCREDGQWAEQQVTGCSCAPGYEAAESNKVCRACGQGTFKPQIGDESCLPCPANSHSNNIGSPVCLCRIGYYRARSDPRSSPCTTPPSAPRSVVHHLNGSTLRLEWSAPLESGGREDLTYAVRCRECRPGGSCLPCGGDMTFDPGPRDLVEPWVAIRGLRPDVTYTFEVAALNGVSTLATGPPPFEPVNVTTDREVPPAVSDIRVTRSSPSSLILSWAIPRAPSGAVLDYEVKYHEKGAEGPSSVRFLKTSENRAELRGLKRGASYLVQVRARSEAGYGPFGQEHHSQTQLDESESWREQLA
The experiment is described as follows: Alpha assay EphB4-EB2. In kind it is binding. The conditions noted are these: for antagonism of EphB4-EB2 interaction: Alpha, ELISA, pulldown. As for the experimental part:
FIG. 5D depicts results from an alpha assay using EphB2-Fc or EphB4-Fc with EB2-His and increasing A20 concentrations to calculate IC50 determination (~10 μM, similar to that found in FIG. 5C).
Protein interaction assays were developed using soluble EphB ectodomains conjugated to Fc from R&D Systems (e.g., rat EphB1-Fc residues 18-538, which is 99.4% identical to human) and EphrinB ectodomains conjugated to His from Sino Biologicals (e.g., mouse EB2-His residues 18-232, which is 97.7% identical to human). Titrating concentrations of the EphB1-Fc ectodomain (or unconjugated Fc protein as negative control) was added with titrating amounts of the three different EphrinB ectodomains (EB1-His, EB2-His, or EB3-His) with 125 ng each of the Protein A donor, anti-6×-His acceptor beads, 2% DMSO, and 1× HiBlock buffer (all from PerkinElmer) in 384 well plates, and after 3 hr incubation at RT were read in an Envision Multilabel Reader 2102. […] No signal above background (<1,500) was detected for wells that contained an Fc control protein and the EB-His proteins or just the EphB1-Fc protein and no EB-His protein.
A20, E13, and other compounds from the top 32 hits were then characterized in pulldown assays. EphB1-Fc was immobilized onto Protein A agarose beads, then mixed with compounds and the soluble EB2-His ectodomain for 1 hr at RT, after which protein complexes were washed and then bound EB2 was detected by immunoblot using anti-His antibodies.

“Also recorded” adds a separate entry of the source.

In the case of `COc1ccccc1N1CCN(Cc2cc(I)c(O)c3ncccc23)CC1` [Compound 71, 7-iodo-5-((4-(2-methoxyphenyl)piperazin-1-yl)methyl)quinolin-8-ol], in experiment [1], the “thermal pain” value is recorded as “significantly less thermal pain” and the thermal pain ratio is on record as ~3.

On to `Oc1c(Cl)cc(CN2CCOCC2)c2cccnc12` [Compound 3, 7-chloro-5-(morpholinomethyl)quinolin-8-ol], for which, on EphB4-Fc with EB2-His, the “antagonism of EphB4-EB2 interaction” value is “very little if any effect on the EphB4-EB2 interaction”.

For the molecule `Oc1c(Br)cc(CN2CCN(c3ccc(Br)cc3)CC2)c2cccnc12` [Compound 28, 7-bromo-5-((4-(4-bromophenyl)piperazin-1-yl)methyl)quinolin-8-ol], the thermal pain ratio result in experiment [1] is reported as “below 2”. The “thermal pain” value in experiment [1] (listed as BQPB4) is “significantly less thermal pain; also recorded: the 20 mg/kg dose produced the strongest and most significant reduction in pain, followed by the 10 mg/kg dose, and then the 5 mg/kg dose”.

In the case of `Oc1c(Br)cc(CN2CCOCC2)c2cccnc12` [Compound 5, 7-bromo-5-(morpholinomethyl)quinolin-8-ol], the IC50 against EphB4-Fc with EB2-His (EphB4-EB2) was > 150 µM. In experiment [1], the “thermal pain” value was “significant reductions in both mechanical and thermal pain”; the thermal pain ratio result was “around 3”.

For the molecule `COc1ccccc1N1CCN(Cc2cc(Br)c(O)c3ncccc23)CC1` [Compound 70, 7-bromo-5-((4-(2-methoxyphenyl)piperazin-1-yl)methyl)quinolin-8-ol], the “antagonism of EphB4-EB2 interaction” value on EphB4-Fc with EB2-His is given as “very little if any effect on the EphB4-EB2 interaction”.
